# In patent US20020137929A1, “1 - (3-heterocyclylphenyl) isothiourea, -isourea, -guanidine and -amidine herbicidal agents” (Intellectual Property Department, BASF Aktiengesellschaft, priority 1998, published 2002):
# Tests used:
# [1] = tested on: IPOHE (Morningglory, Ivyleaf); assay: Postemergence herbicidal evaluation; format: in vivo, Ipomoea hederacea
# Outline: (§1)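 Herbicidal effect was judged by eye on a 0–9 scale covering stand, vigor, deformity, size and chlorosis, compared with controls, four to five weeks after seedlings about two weeks old were sprayed (40 psi, ~0.0156–0.500 kg/ha).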
# ABUTH (Velvetleaf) = assay: Preemergence herbicidal evaluation; format: in vivo, Abutilon theophrasti; conditions: rated 4-5 weeks after treatment
# Outline: (§2)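 Greenhouse preemergence test: seed-soil mix sown on ~1 inch soil; aqueous acetone spray at equivalent of ~0.0156–0.500 kg/ha; greenhouse-held and watered; scored 0–9 visually at 4–5 weeks.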
# [2] = tested on: CHEAL (Lambsquarters, Common); assay: Postemergence herbicidal evaluation; format: in vivo, Chenopodium album
# Outline: as §1
# [3] = tested on: GLXMAW (Soybean, Williams); assay: Preemergence herbicidal evaluation; format: in vivo, Glycine max, (L.) Merr. cv Williams; conditions: rated 4-5 weeks after treatment
# Outline: as §2
# ECHCG (Barnyardgrass) = assay: Postemergence herbicidal evaluation; format: in vivo, Echinochloa crus-galli
# Outline: as §1
# CASOB (Sicklepod) [4] = assay: Preemergence herbicidal evaluation; format: in vivo, Cassia obtusifolia; conditions: rated 4-5 weeks after treatment
# Outline: as §2
# [5] = tested on: GLXMAW (Soybean, Williams); assay: Postemergence herbicidal evaluation; format: in vivo, Glycine max, (L.) Merr. cv Williams
# Outline: as §1
# ORYSAT (Rice, Tebonnet) = assay: Preemergence herbicidal evaluation; format: in vivo, Oryza sativa, (L.) Tebonnet; conditions: rated 4-5 weeks after treatment
# Outline: as §2
# [6] = tested on: CHEAL (Lambsquarters, Common); assay: Preemergence herbicidal evaluation; format: in vivo, Chenopodium album; conditions: rated 4-5 weeks after treatment
# Outline: as §2
# MOOVA (Monochoria) = assay: Preemergence weed control under flooded paddy conditions; format: in vivo, Monochoria vaginalis; conditions: rated 3-4 weeks after treatment
# Outline: (§3)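 Visual injury scored 0-9 against control three to four weeks post-treatment, greenhouse-grown. Application: acetone/water (50/50) solutions dosed directly into flood water (1.5-3 cm over silt loam, planted top 0.5 cm), roughly 0.0313 to 0.500 kg/ha active ingredient.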
# [7] = tested on: IPOHE (Morningglory, Ivyleaf); assay: Preemergence herbicidal evaluation; format: in vivo, Ipomoea hederacea; conditions: rated 4-5 weeks after treatment
# Outline: as §2
# [8] = tested on: TRZAWR (Wheat, Winter, cv Riband); assay: Postemergence herbicidal evaluation; format: in vivo, Triticum aestivum
# Outline: as §1
# CASOB (Sicklepod) [9] = assay: Postemergence herbicidal evaluation; format: in vivo, Cassia obtusifolia
# Outline: as §1
# [10] = tested on: SAGPY (Arrowhead (Pygmaea)); assay: Preemergence weed control under flooded paddy conditions; format: in vivo, Sagittaria pygmaea; conditions: rated 3-4 weeks after treatment
# Outline: as §3
# AMBEL (Ragweed, Common) [11] = assay: Postemergence herbicidal evaluation; format: in vivo, Ambrosia artemisifolia
# Outline: as §1
# AMBEL (Ragweed, Common) [12] = assay: Preemergence herbicidal evaluation; format: in vivo, Ambrosia artemisifolia; conditions: rated 4-5 weeks after treatment
# Outline: as §2
smiles,measurement,setting,value
"COCCCN1C(=O)CSC1=Nc1cc(-n2c(=O)cc(C(F)(F)F)n(C)c2=O)c(F)cc1Cl [Compound 172, 3-{4-Chloro-2-fluoro-5-{[3-(3-methoxypropyl)-4-oxo-2-thiazolidinylidene]amino}phenyl}-1-methyl-6-(trifluoromethyl)-2,4(1H, 3H)-pyrimidinedione]",Postemergence herbicidal rating IPOHE,[1]; Rate 0.0313 kg/ha,9.0
same,Postemergence herbicidal rating IPOHE,[1]; Rate 0.0625 kg/ha,9.0
same,Postemergence herbicidal rating IPOHE,[1]; rate 0.0156 kg/ha,9.0
same,Preemergence herbicidal rating ABUTH,ABUTH (Velvetleaf); 0.0156 kg/ha,9.0
same,Preemergence herbicidal rating ABUTH,ABUTH (Velvetleaf); 0.0313 kg/ha,9.0
same,Preemergence herbicidal rating ABUTH,ABUTH (Velvetleaf); 0.0625 kg/ha,9.0
same,Preemergence herbicidal rating ABUTH,ABUTH (Velvetleaf); 0.1250 kg/ha,9.0
same,Preemergence herbicidal rating ABUTH,ABUTH (Velvetleaf); 0.2500 kg/ha,9.0
same,Postemergence herbicidal rating CHEAL,[2]; Rate 0.0313 kg/ha,9.0
same,Postemergence herbicidal rating CHEAL,[2]; Rate 0.0625 kg/ha,9.0
same,Postemergence herbicidal rating CHEAL,[2]; rate 0.0156 kg/ha,6.0
same,Preemergence herbicidal rating GLXMAW,[3]; 0.0156 kg/ha,1.0
same,Preemergence herbicidal rating GLXMAW,[3]; 0.0313 kg/ha,2.0
same,Preemergence herbicidal rating GLXMAW,[3]; 0.0625 kg/ha,7.0
same,Preemergence herbicidal rating GLXMAW,[3]; 0.1250 kg/ha,9.0
same,Preemergence herbicidal rating GLXMAW,[3]; 0.2500 kg/ha,9.0
same,Postemergence herbicidal rating ECHCG,ECHCG (Barnyardgrass); Rate 0.0313 kg/ha,3.0
same,Postemergence herbicidal rating ECHCG,ECHCG (Barnyardgrass); Rate 0.0625 kg/ha,3.0
same,Postemergence herbicidal rating ECHCG,ECHCG (Barnyardgrass); rate 0.0156 kg/ha,2.0
same,Preemergence herbicidal rating CASOB,CASOB (Sicklepod) [4]; 0.0156 kg/ha,1.0
same,Preemergence herbicidal rating CASOB,CASOB (Sicklepod) [4]; 0.0313 kg/ha,3.0
same,Preemergence herbicidal rating CASOB,CASOB (Sicklepod) [4]; 0.0625 kg/ha,7.0
same,Preemergence herbicidal rating CASOB,CASOB (Sicklepod) [4]; 0.1250 kg/ha,9.0
same,Preemergence herbicidal rating CASOB,CASOB (Sicklepod) [4]; 0.2500 kg/ha,9.0
same,Postemergence herbicidal rating GLXMAW,[5]; Rate 0.0313 kg/ha,6.5
same,Postemergence herbicidal rating GLXMAW,[5]; Rate 0.0625 kg/ha,7.0
same,Postemergence herbicidal rating GLXMAW,[5]; rate 0.0156 kg/ha,6.0
same,Preemergence herbicidal rating ORYSAT,"ORYSAT (Rice, Tebonnet); 0.0156 kg/ha",2.0
same,Preemergence herbicidal rating ORYSAT,"ORYSAT (Rice, Tebonnet); 0.0313 kg/ha",5.0
same,Preemergence herbicidal rating ORYSAT,"ORYSAT (Rice, Tebonnet); 0.0625 kg/ha",7.0
same,Preemergence herbicidal rating ORYSAT,"ORYSAT (Rice, Tebonnet); 0.1250 kg/ha",7.0
same,Preemergence herbicidal rating ORYSAT,"ORYSAT (Rice, Tebonnet); 0.2500 kg/ha",8.0
same,Preemergence herbicidal rating CHEAL,[6]; 0.0156 kg/ha,9.0
same,Preemergence herbicidal rating CHEAL,[6]; 0.0313 kg/ha,9.0
same,Preemergence herbicidal rating CHEAL,[6]; 0.0625 kg/ha,9.0
same,Preemergence herbicidal rating CHEAL,[6]; 0.1250 kg/ha,9.0
same,Preemergence herbicidal rating CHEAL,[6]; 0.2500 kg/ha,9.0
same,"herbicidal effect rating, MOOVA",MOOVA (Monochoria); 0.0313 kg/ha,9.0
same,"herbicidal effect rating, MOOVA",MOOVA (Monochoria); 0.0625 kg/ha,9.0
same,"herbicidal effect rating, MOOVA",MOOVA (Monochoria); 0.1250 kg/ha,9.0
same,"herbicidal effect rating, MOOVA",MOOVA (Monochoria); 0.2500 kg/ha,9.0
same,Preemergence herbicidal rating IPOHE,[7]; 0.0156 kg/ha,2.0
same,Preemergence herbicidal rating IPOHE,[7]; 0.0313 kg/ha,7.0
same,Preemergence herbicidal rating IPOHE,[7]; 0.0625 kg/ha,7.0
same,Preemergence herbicidal rating IPOHE,[7]; 0.1250 kg/ha,9.0
same,Preemergence herbicidal rating IPOHE,[7]; 0.2500 kg/ha,9.0
same,Postemergence herbicidal rating TRZAWR,[8]; Rate 0.0313 kg/ha,4.5
same,Postemergence herbicidal rating TRZAWR,[8]; Rate 0.0625 kg/ha,4.0
same,Postemergence herbicidal rating TRZAWR,[8]; rate 0.0156 kg/ha,4.0
same,Postemergence herbicidal rating CASOB,CASOB (Sicklepod) [9]; Rate 0.0313 kg/ha,2.0
same,Postemergence herbicidal rating CASOB,CASOB (Sicklepod) [9]; Rate 0.0625 kg/ha,2.0
same,Postemergence herbicidal rating CASOB,CASOB (Sicklepod) [9]; rate 0.0156 kg/ha,1.0
same,"herbicidal effect rating, SAGPY",[10]; 0.0313 kg/ha,6.0
same,"herbicidal effect rating, SAGPY",[10]; 0.0625 kg/ha,6.0
same,"herbicidal effect rating, SAGPY",[10]; 0.1250 kg/ha,9.0
same,"herbicidal effect rating, SAGPY",[10]; 0.2500 kg/ha,9.0
same,Postemergence herbicidal rating AMBEL,"AMBEL (Ragweed, Common) [11]; Rate 0.0313 kg/ha",9.0
same,Postemergence herbicidal rating AMBEL,"AMBEL (Ragweed, Common) [11]; Rate 0.0625 kg/ha",9.0
same,Postemergence herbicidal rating AMBEL,"AMBEL (Ragweed, Common) [11]; rate 0.0156 kg/ha",6.0
same,Preemergence herbicidal rating AMBEL,"AMBEL (Ragweed, Common) [12]; 0.0156 kg/ha",5.0
same,Preemergence herbicidal rating AMBEL,"AMBEL (Ragweed, Common) [12]; 0.0313 kg/ha",7.0
same,Preemergence herbicidal rating AMBEL,"AMBEL (Ragweed, Common) [12]; 0.0625 kg/ha",9.0
same,Preemergence herbicidal rating AMBEL,"AMBEL (Ragweed, Common) [12]; 0.1250 kg/ha",9.0
same,Preemergence herbicidal rating AMBEL,"AMBEL (Ragweed, Common) [12]; 0.2500 kg/ha",9.0
